According to the supplement of paper PMC10307832:

Assays:
Test in all cases: relative viability (nuclei count vs DMSO), 5 days (fraction); higher = more cells survive
Shikonin + Lapatinib = compound: CC(C)=CC[C@@H](O)C1=CC(=O)c2c(O)ccc(O)c2C1=O [Shikonin] + CS(=O)(=O)CCNCc1ccc(-c2ccc3ncnc(Nc4ccc(OCc5cccc(F)c5)c(Cl)c4)c3c2)o1 [Lapatinib] (partner 2 µM)
How it was run: (§1)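 The day after seeding in 1536-well plates, lung cancer cell lines were treated by pin tool with a single drug, or with a fixed anchor-drug dose together with five library-drug doses (not always all listed) in √10 steps. After 5 days, a combined fix-and-stain solution (final 0.05% Triton X-100, 1% formaldehyde, 1 ug/ml Hoechst) was added. Nuclei counted on 4× images gave relative viability as treated counts over vehicle counts, reported as the median of duplicate plates.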

Shikonin + Pictilisib = compound: CC(C)=CC[C@@H](O)C1=CC(=O)c2c(O)ccc(O)c2C1=O [Shikonin] + CS(=O)(=O)N1CCN(Cc2cc3nc(-c4cccc5[nH]ncc45)nc(N4CCOCC4)c3s2)CC1 [Pictilisib] (partner 1 µM)
How it was run: as §1

[1] = compound: CC(C)N(CCCNC(=O)Nc1ccc(C(C)(C)C)cc1)C[C@H]1O[C@@H](n2ccc3c(N)ncnc32)[C@H](O)[C@@H]1O + CS(=O)(=O)CCNCc1ccc(-c2ccc3ncnc(Nc4ccc(OCc5cccc(F)c5)c(Cl)c4)c3c2)o1 [Lapatinib] (partner 2 µM)
How it was run: as §1

[2] = compound: CC(C)N(CCCNC(=O)Nc1ccc(C(C)(C)C)cc1)C[C@H]1O[C@@H](n2ccc3c(N)ncnc32)[C@H](O)[C@@H]1O + Cc1nc(NC(=O)N2CCC[C@H]2C(N)=O)sc1-c1ccnc(C(C)(C)C(F)(F)F)c1 [Alpelisib] (partner 2 µM)
How it was run: as §1

Row | Cell Line | relative viability (Shikonin + Lapatinib; first compound 0.01 µM) | relative viability (Shikonin + Lapatinib; first compound 0.1 µM) | relative viability (Shikonin + Lapatinib; first compound 0.3162 µM) | relative viability (Shikonin + Lapatinib; first compound 1 µM) | relative viability (Shikonin + Pictilisib; first compound 0.01 µM) | relative viability (Shikonin + Pictilisib; first compound 0.1 µM) | relative viability (Shikonin + Pictilisib; first compound 0.3162 µM) | relative viability (Shikonin + Pictilisib; first compound 1 µM) | relative viability ([1]; first compound 0.08 µM) | relative viability ([1]; first compound 0.253 µM) | relative viability ([1]; first compound 0.8 µM) | relative viability ([1]; first compound 2.53 µM) | relative viability ([1]; first compound 8 µM) | relative viability ([2]; first compound 0.08 µM) | relative viability ([2]; first compound 0.253 µM) | relative viability ([2]; first compound 0.8 µM) | relative viability ([2]; first compound 2.53 µM) | relative viability ([2]; first compound 8 µM)
1 | NCI-H2347 | 0.981 | 1.01 | 1.08 | 0.913 | 0.701 | 0.764 | 0.582 | 0.573 | 0.965 | 0.999 | 0.654 | 0.968 | 0.934 | 0.882 | 0.904 | 0.935 | 1.1 | 1
2 | HCC-366 | 1.34 | 1.24 | 1.11 | 1.03 | 0.164 | 0.137 | 0.165 | 0.127 | 0.987 | 1.07 | 1.02 | 0.981 | 0.976 | 0.394 | 0.442 | 0.366 | 0.367 | 0.41
3 | EMC-BAC-2 | 0.939 | 0.999 | 0.941 | 0.923 | 0.541 | 0.536 | 0.593 | 0.654 | 0.9 | 0.916 | 0.915 | 0.929 | 0.82 | 0.654 | 0.753 | 0.722 | 0.721 | 0.706
4 | NCI-H3122 | 0.973 | 1.13 | 1 | 1.04 | 0.638 | 0.643 | 0.607 | 0.494 | 1.09 | 0.938 | 1.02 | 1.02 | 1.03 | 0.808 | 0.846 | 0.797 | 0.858 | 0.701
5 | NCI-H358 | 0.374 | 0.53 | 0.412 | 0.391 | 0.297 | 0.366 | 0.281 | 0.343 | 0.433 | 0.443 | 0.427 | 0.357 | 0.393 | 0.78 | 0.823 | 0.901 | 0.87 | 0.917
6 | NCI-H1944 | 0.89 | 0.894 | 0.789 | 0.933 | 0.352 | 0.379 | 0.353 | 0.392 | 0.764 | 0.88 | 0.652 | 0.847 | 0.795 | 0.769 | 0.806 | 0.774 | 0.852 | 0.82
7 | EPLC-272H | 0.869 | 1.2 | 1.08 | 1.22 | 0.299 | 0.383 | 0.292 | 0.36 | 1.05 | 0.81 | 0.823 | 0.981 | 1.11 | 0.95 | 0.912 | 0.856 | 1.03 | 1.03
8 | EBC-1 | 0.19 | 0.191 | 0.213 | 0.217 | 0.331 | 0.353 | 0.369 | 0.34 | 0.206 | 0.196 | 0.212 | 0.183 | 0.206 | 0.749 | 0.825 | 0.739 | 0.848 | 0.704
9 | NCI-H1915 | 1.01 | 1.18 | 1 | 1.09 | 0.975 | 1.09 | 1.05 | 0.958 | 1.02 | 0.981 | 0.783 | 0.925 | 0.87 | 1.07 | 1.05 | 0.974 | 1.05 | 0.968
10 | NCI-H650 | 1.01 | – | 0.947 | 1.16 | 0.946 | – | 0.965 | 0.845 | 0.921 | 0.889 | 0.775 | 0.791 | 0.871 | 0.984 | 1.09 | 1.21 | 1.13 | 0.958
11 | NCI-H1299 | 1.01 | 1.09 | 0.986 | 0.936 | 0.76 | 1.08 | 0.711 | 0.429 | 0.984 | 0.948 | 0.914 | 0.919 | 0.891 | 1.03 | 1.03 | 1.07 | 1.02 | 1.04
12 | NCI-H23 | 1.2 | 1.14 | 1.13 | 1.03 | 0.508 | 0.514 | 0.497 | 0.378 | 1 | – | 1.22 | 1.21 | 0.955 | 0.687 | – | 0.695 | 0.684 | 0.668
13 | IA-LM | 1.11 | – | 0.81 | 0.679 | 0.363 | 0.364 | 0.337 | 0.305 | 0.959 | 0.801 | 0.733 | 0.734 | 0.681 | 0.667 | 0.759 | 0.787 | 0.701 | 0.723
14 | NCI-H661 | 0.575 | 0.494 | 0.501 | 0.594 | 0.372 | 0.427 | 0.39 | 0.38 | 0.441 | 0.467 | 0.519 | 0.404 | 0.523 | 0.692 | 0.61 | 1.03 | 0.63 | 0.645
15 | SK-MES-1 | 0.543 | 0.509 | 0.514 | 0.463 | 0.352 | 0.392 | 0.413 | 0.368 | 0.501 | 0.461 | 0.455 | 0.491 | 0.414 | 0.992 | 0.897 | 0.754 | 0.945 | 0.838
16 | NCI-H2170 | 0.257 | 0.271 | 0.276 | 0.266 | 0.291 | 0.34 | 0.338 | 0.326 | 0.248 | 0.26 | 0.256 | 0.262 | 0.266 | 0.736 | 0.762 | 0.82 | 0.815 | 0.908
17 | NCI-H2087 | 1.03 | 1.38 | 1.15 | 0.954 | 0.767 | 1.05 | 0.843 | 0.861 | 1.03 | 1.16 | 0.825 | 1.01 | 0.996 | 1.04 | 1.21 | 1.14 | 1.24 | 1.11
18 | NCI-H1993 | – | 0.806 | 0.711 | 0.921 | – | 0.84 | 0.803 | 0.792 | 0.857 | 0.734 | 0.769 | 0.819 | 0.775 | 0.696 | 0.786 | 0.619 | 0.675 | 0.751
